# Legend:
# [1] = cited from earlier work; for Ksp in pure H2O at 25° C. / Ksp In pure H2O at 25° C.: CRC Handbook of Chemistry and Physics; for Ksp in pure H2O at 25° C.: 74th edition (Table 8); for Ksp In pure H2O at 25° C.: 74th edition (Table 4); for Ksp: silver salt, pure water at 25° C. (Table 1)
# [2] = Solubility-product constant (Ksp) and molar solubility of metal salts in pure water at 25° C.; conditions: derived from Ksp (Table 1)
Compound,Ksp in pure H2O at 25° C. [1],Ksp In pure H2O at 25° C. [1],Ksp [1],also measured
[O]=[Zn] [Zinc oxide],3.87 × 10^−10,,,
O=S(=O)([O-])[O-].[Ag+].[Ag+] [Silver sulfate],,1.20 × 10^−5,1.20 × 10^−5,
"[Cl][Ag] [AgCl, silver chloride]",,,1.77 × 10^−10,
Copper sulfide,6.00 × 10^−37,,,
[Br][Ag] [Silver bromide],,5.35 × 10^−13,,
"[Ag][I] [Agl, silver iodide]",,,8.51 × 10^−17,"Molar solubility, silver [2]: 9.22 nM"

# — patent publication US20040150788A1, “Antimicrobial lenses, processes to prepare them and methods of their use” (priority 2002, published 2004)
